The source of these data is patent US20150133341A1, “Intra-Operative Cancer Diagnosis Based on a Hyperpolarized Marker” (ALBEDA INNOVATIONS APS, priority 2012, published 2015).

Molecules are shown by their SMILES.

Experiment in all cases: Carboxyl esterase activity in cell extract, 1H NMR
What all share (assay type): biochemical, human

The subject of experiment [1] is carboxyl esterase in lysed prostate cancer cells (PC-3). The conditions noted are these: for Metabolic conversion, Prostate cancer cells PC-3: 37° C. As for the experimental part: (§1) The hydrolysis of the substrates was investigated in cell extracts. To test substrates without isotope labelling for carboxyl esterase activity in a cellular background, a ^1H NMR assay was applied. Human breast cancer cells (MCF-7) and human prostate cancer cells (PC-3) were grown in RPMI medium with 10% FBS and antibiotics. They were at confluence harvested by trypsination and washed once with 5 ml PBS. They were spun down and resuspended in PBS to a concentration of 20 mill. cells/ml. The cells were hereafter sonicated on ice (50% amplitude, 1 min, 3 sec pulse). Human lymphocytes were purified from whole blood. Whole blood samples were drawn from healthy volunteer into heparinised venous blood collection tubes (Venosafe vacumtubes from Terumo). For each experiment, the blood was purified freshly: Three and a half 10 mL tubes of blood were pooled in each of four 50 mL Leucosep (Greiner) tubes prepared with 15 mL Histopaque 1077 (Sigma). The Leucosep tubes were spun for 15 min at 800× g at 24 C. The plasma was removed and the white blood cells were transferred to a 50 mL falcon tube by decanting and diluted 1:2 in PBS-Mg—Ca for a total volume of 50 mL. The cells were sedimented by centrifugation at 250×g for 60 min. Diluting with trypan blue and counting in hemocytometer determined the total number of lymphocytes before sedimentation. All cells were viable and the total number of cells in each cell batch was approx. 60 million. The lymphocytes were redissolved to a concentration of 20 million cells/ml. The cells were hereafter sonicated on ice (50% amplitude, 1 min, 3 sec pulse).
(§2) 250 μl sonicated cell suspension was mixed with 250 μl 400 mM phosphate buffer pH 7.3. This solution was transferred to a 5 mm NMR tube and warmed on a water bath to 37° C. The substrate was added (50 μl, 60 mM) and the tube turned for mixing before it was inserted into the spectrometer. The data was analyzed with MNOVA software and measured as percentage conversion of substrate calculated to account for the amount of substrate converted over 60 min; numbers are given in μmol/hour.

The subject of experiment [2] is carboxyl esterase in lysed breast cancer cells (MCF-7). The conditions noted are these: 5 million lysed cells; for Metabolic conversion, Breast cancer cells MCF-7: 37° C. As for the experimental part:
as §1, §2

Experiment [3] relates to carboxyl esterase in lysed lymphocytes (B + T cells). The conditions noted are these: 5 million lysed cells; for Metabolic conversion, Lymphocytes (B + T cells): 37° C. As to the method:
as §1, §2

Setting [4] is: acetate vs ethyl ester function.

In the case of `CC(=O)OCc1ccccc1` [Benzyl acetate], the “Metabolic conversion, Prostate cancer cells PC-3” value in experiment [1] (5 million lysed cells) was found to be 22 µmol/h. Besides, in experiment [1] (cell number basis, positive contrast), the “metabolic conversion in prostate cancer cells compared to lymphocytes” value was around 60 times. Besides, the “Metabolic conversion, Breast cancer cells MCF-7” value in experiment [2] stood at 1.05 µmol/h. Also, in experiment [3], the “Metabolic conversion, Lymphocytes (B + T cells)” value was 0.39 µmol/h.
With `CC(=O)OCC(COC(C)=O)OC(C)=O` [Tri-acetin], the “Metabolic conversion, Prostate cancer cells PC-3” value in experiment [1] (5 million lysed cells) amounted to 1.8 µmol/h. In experiment [2], the “Metabolic conversion, Breast cancer cells MCF-7” value came to 0.27 µmol/h. Besides, the “Metabolic conversion, Lymphocytes (B + T cells)” value in experiment [3] stood at 0.18 µmol/h.
`CCOC(=O)CC(C)OC(C)=O` (stereo not shown) [ethyl 3-acetoxy butanoate]: the Prostate cancer cells PC-3 Ratio acetate/ethyl in experiment [1] (5 million lysed cells, acetate vs ethyl ester function) amounted to 9. In addition, in experiment [2] (setting [4]), the Breast cancer cells MCF-7 Ratio acetate/ethyl turned out to be 2. Further, the Lymphocytes (B + T cells) Ratio acetate/ethyl in experiment [3] (setting [4]) was 1.
